Measured values: patent US10584115B2, “Substituted pyridine and pyrazine BMI-1 inhibitors” (PTC Therapeutics, Inc., priority 2013, dated 2020)
Like-named read-outs stand apart in the source and are kept apart here.

Tested on: Bmi-1 protein
Assay: Sandwich ELISA Assay (Bmi-1 protein level in HT-1080 cells after compound treatment)
Type: cell-based
Summary of the method: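 HT-1080 cells exposed to compounds for 40–48 h at 37 °C (0.5% DMSO final), then lysed. Bmi-1 in lysates measured by sandwich ELISA (mouse monoclonal capture, rabbit anti-Bmi-1 detection, HRP anti-rabbit, TMB), read at OD450 with OD570 reference against a recombinant Bmi-1 standard curve (0–8000 pg/mL).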

[1] = Table 1, Bmi-1 sandwich ELISA, read-out: ELISA EC50 value for Bmi-1 protein

SMILES | EC50 [1] | EC50 (read-out: ELISA EC50 value for Bmi-1 protein, Table 1, Bmi-1 sandwich ELISA)
Cc1nn2ccccc2c1-c1cc(C#N)cc(Nc2ccc(OC(F)(F)F)cc2)n1 [compound 514, 2-(2-methylpyrazolo[1,5-a]pyridin-3-yl)-6-{[4-(trifluoromethoxy)phenyl]amino}pyridine-4-carbonitrile] | 100 to 3000 nM | –
Cc1nc2ccc(C(F)(F)F)cc2n1-c1cncc(Nc2ccc(C(F)(F)F)cc2)n1 [compound 340, 6-[2-methyl-6-(trifluoromethyl)-1H-benzimidazol-1-yl]-N-[4-(trifluoromethyl)phenyl]pyrazin-2-amine] | 100 to 3000 nM | –
Cc1nc2cc(F)c(F)cc2n1-c1cncc(Nc2ccc(C(F)(F)F)cc2)n1 [compound 683, 6-(5,6-difluoro-2-methyl-1H-benzimidazol-1-yl)-N-[4-(trifluoromethyl)phenyl]pyrazin-2-amine] | 10 to 100 nM | –
Cc1nc2ccccc2n1-c1cncc(Nc2ccc(C(F)(F)F)cn2)n1 [compound 457, 6-(2-methyl-1H-benzimidazol-1-yl)-N-[5-(trifluoromethyl)pyridin-2-yl]pyrazin-2-amine] | 100 to 3000 nM | –
CCc1nc2ncc(F)cc2n1-c1cncc(Nc2ccc(C(F)(F)F)c(F)c2)n1 [compound 374, 6-(2-ethyl-6-fluoro-1H-imidazo[4,5-b]pyridin-1-yl)-N-[3-fluoro-4-(trifluoromethyl)phenyl]pyrazin-2-amine] | 10 to 100 nM | –
COc1c(F)cc(Nc2cc(C#N)cc(-c3c(C4CC4)nc4ccc(F)cn34)n2)cc1F [compound 351, 2-(2-cyclopropyl-6-fluoroimidazo[1,2-a]pyridin-3-yl)-6-[(3,5-difluoro-4-methoxyphenyl)amino}pyridine-4-carbonitrile] | 10 to 100 nM | –
Cc1nc2ccc(F)cc2n1-c1cccc(Nc2ccc(OC(F)(F)F)cc2)n1 [Cpd 585, 6-(6-fluoro-2-methyl-1H-benzimidazol-1-yl)-N-[4-(trifluoromethoxy)phenyl]pyridin-2-amine] | 100 to 3000 nM | –
CCc1nc2ccc(F)cc2n1-c1cncc(Nc2ccccc2)n1 [compound 620, 6-(2-ethyl-6-fluoro-1H-benzimidazol-1-yl)-N-phenylpyrazin-2-amine] | 100 to 3000 nM | –
COc1ccc(Nc2cncc(-c3c(C(F)(F)F)nc4ccccn34)n2)cc1Cl [Cpd 22, N-(3-chloro-4-methoxyphenyl)-6-[2-(trifluoromethyl)imidazo[1,2-a]pyridin-3-yl]pyrazin-2-amine] | 1 to 10 nM | –
COc1ccc(Nc2cncc(-n3c(C)nc4ccccc43)n2)cc1Cl [compound 28, N-(3-chloro-4-methoxyphenyl)-6-(2-methyl-1H-benzimidazol-1-yl)pyrazin-2-amine] | 1 to 10 nM | –
Fc1cnc2nc(C3CC3)n(-c3cncc(Nc4ccc(C(F)(F)F)nc4)n3)c2c1 [compound 458, 6-(2-cyclopropyl-6-fluoro-1H-imidazo[4,5-b]pyridin-1-yl)-N-[6-(trifluoromethyl)pyridin-3-yl]pyrazin-2-amine] | 100 to 3000 nM | –
FC(F)(F)Oc1ccc(Nc2cncc(-c3c(C(F)(F)F)nc4ncccn34)n2)cc1 [Cpd 100, N-[4-(trifluoromethoxy)phenyl]-6-[2-(trifluoromethyl)imidazo[1,2-a]pyrimidin-3-yl]pyrazin-2-amine] | 100 to 3000 nM | –
Fc1ccc2nc(C(F)(F)F)c(-c3cncc(Nc4ccc(OC(F)(F)F)cc4)n3)n2c1 [Cpd 55, 6-[6-fluoro-2-(trifluoromethyl)imidazo[1,2-a]pyridin-3-yl]-N-[4-(trifluoromethoxy)phenyl]pyrazin-2-amine] | 10 to 100 nM | –
Cc1nc2cc(OC(F)(F)F)ccc2n1-c1cncc(Nc2ccc(C(F)(F)F)cc2)n1 [compound 356, 6-[2-methyl-5-(trifluoromethoxy)-1H-benzimidazol-1-yl]-N-[4-(trifluoromethyl)phenyl]pyrazin-2-amine] | 100 to 3000 nM | –
FC(F)(F)c1ccc(Nc2cncc(-c3ccnc(-c4ccnc(Cl)c4)c3)n2)cc1 [compound 354, 6-(2′-chloro-2,4′-bipyridin-4-yl)-N-[4-(trifluoromethyl)phenyl]pyrazin-2-amine] | 100 to 3000 nM | –
Cc1nc2ccccc2n1-c1cncc(Nc2ccc(CO)cc2)n1 [compound 152, (4-{[6-(2-methyl-1H-benzimidazol-1-yl)pyrazin-2-yl]amino}phenyl)methanol] | 10 to 100 nM | –
COc1ccc(Nc2cncc(-n3c(C)cc4ccccc43)n2)cc1 [compound 164, N-(4-methoxyphenyl)-6-(2-methyl-1H-indol-1-yl)pyrazin-2-amine] | 10 to 100 nM | –
CCc1nn2ccccc2c1-c1cncc(Nc2ccc(OC(F)F)c(F)c2)n1 [compound 522, N-[4-(difluoromethoxy)-3-fluorophenyl]-6-(2-ethylpyrazolo[1,5-a]pyridin-3-yl)pyrazin-2-amine] | 10 to 100 nM | –
FC(F)Oc1ccc(Nc2cncc(-c3c(C(F)(F)F)nc4ccccn34)n2)cc1 [Cpd 24, N-[4-(difluoromethoxy)phenyl]-6-[2-(trifluoromethyl)imidazo[1,2-a]pyridin-3-yl]pyrazin-2-amine] | < 1 nM | –
Cc1nc2ccccc2n1-c1cc(C(N)=O)cc(Nc2ccc(C(F)(F)F)cc2)n1 [Cpd 203, 2-(2-methyl-1H-benzimidazol-1-yl)-6-{[4-(trifluoromethyl)phenyl]amino}pyridine-4-carboxamide] | – | 100 to 3000 nM

SMILES | EC50 [1] | EC50 (read-out: ELISA EC50 value for Bmi-1 protein, Table 1, Bmi-1 sandwich ELISA)
Cc1cc2ccccc2n1-c1cncc(Nc2ccc(OC(F)F)cc2)n1 [compound 163, N-[4-(difluoromethoxy)phenyl]-6-(2-methyl-1H-indol-1-yl)pyrazin-2-amine] | 100 to 3000 nM | –
COc1ccc(Nc2cccc(-n3c(C)nc4ccc(F)cc43)n2)cc1 [Cpd 586, 6-(6-fluoro-2-methyl-1H-benzimidazol-1-yl)-N-(4-methoxyphenyl)pyridin-2-amine] | 1 to 10 nM | –
COc1ccc2nc(C(F)(F)F)c(-c3cncc(Nc4ccc(C)cc4)n3)n2c1 [Cpd 682, 6-[6-methoxy-2-(trifluoromethyl)imidazo[1,2-a]pyridin-3-yl]-N-(4-methylphenyl)pyrazin-2-amine] | 100 to 3000 nM | –
Cc1nc2c(F)cc(F)cn2c1-c1cncc(Nc2ccc(OC(F)F)cc2)n1 [compound 255, N-[4-(difluoromethoxy)phenyl]-6-(6,8-difluoro-2-methylimidazo[1,2-a]pyridin-3-yl)pyrazin-2-amine] | 1 to 10 nM | –
COc1cc(C)ccc1Nc1cncc(-n2c(C)nc3ccccc32)n1 [compound 576, N-(2-methoxy-4-methylphenyl)-6-(2-methyl-1H-benzimidazol-1-yl)pyrazin-2-amine] | 100 to 3000 nM | –
Cc1nc2ccccc2n1-c1cccc(Nc2ccc(C(F)(F)F)cc2)n1 [Cpd 37, 6-(2-methyl-1H-benzimidazol-1-yl)-N-[4-(trifluoromethyl)phenyl]pyridin-2-amine] | 10 to 100 nM | –
Fc1cc2nc(C3CC3)n(-c3cncc(Nc4ccc(OC(F)F)cc4)n3)c2cc1F [compound 460, 6-(2-cyclopropyl-5,6-difluoro-1H-benzimidazol-1-yl)-N-[4-(difluoromethoxy)phenyl]pyrazin-2-amine] | 10 to 100 nM | –
Cc1ccc(Nc2cccc(-n3c(C)nc4ccc(F)cc43)n2)cc1 [Cpd 587, 6-(6-fluoro-2-methyl-1H-benzimidazol-1-yl)-N-(4-methylphenyl)pyridin-2-amine] | 1 to 10 nM | –
Cc1nc2ccccc2n1-c1cc(C#N)cc(Nc2ccc(OC(F)F)cc2)n1 [Cpd 135, 2-{[4-(difluoromethoxy)phenyl]amino}-6-(2-methyl-1H-benzimidazol-1-yl)pyridine-4-carbonitrile] | 10 to 100 nM | –
Cc1nc2cccc(F)c2n1-c1cncc(Nc2ccc(C(F)(F)F)cc2)n1 [compound 358, 6-(7-fluoro-2-methyl-1H-benzimidazol-1-yl)-N-[4-(trifluoromethyl)phenyl]pyrazin-2-amine] | 10 to 100 nM | –
Cc1nc2cc(F)c(F)cc2n1-c1cncc(Nc2ccc(Cl)c(F)c2)n1 [compound 294, N-(4-chloro-3-fluorophenyl)-6-(5,6-difluoro-2-methyl-1H-benzimidazol-1-yl)pyrazin-2-amine] | 100 to 3000 nM | –
COc1ccc(Nc2cncc(-c3c(C)nc4ccc(F)cn34)n2)cc1 [compound 592, 6-(6-fluoro-2-methylimidazo[1,2-a]pyridin-3-yl)-N-(4-methoxyphenyl)pyrazin-2-amine] | < 1 nM | –
N#Cc1cc(Nc2ccc(OC(F)F)c(F)c2)nc(-c2c(CO)nc3ccc(F)cn23)c1 [compound 394, 2-{[4-(difluoromethoxy)-3-fluorophenyl]amino}-6-[6-fluoro-2-(hydroxymethyl)imidazo[1,2-a]pyridin-3-yl]pyridine-4-carbonitrile] | 10 to 100 nM | –
Cc1nc2ncccc2n1-c1cncc(NC2=CCC(F)(C(F)(F)F)C=C2)n1 (stereo not drawn) [compound 360, N-[4-fluoro-4-(trifluoromethyl)phenyl]-6-(2-methyl-1H-imidazo[4,5-b]pyridin-1-yl)pyrazin-2-amine] | 10 to 100 nM | –
Cc1nc2ccccc2n1-c1cncc(Nc2cc(F)c(C(F)(F)F)c(F)c2)n1 [compound 645, N-[3,5-difluoro-4-(trifluoromethyl)phenyl]-6-(2-methyl-1H-benzimidazol-1-yl)pyrazin-2-amine] | 10 to 100 nM | –
Cc1nc2ccccc2n1-c1cncc(Nc2ccc(B(O)O)cc2)n1 [compound 434, (4-{[6-(2-methyl-1H-benzimidazol-1-yl)pyrazin-2-yl]amino}phenyl)boronic acid] | 10 to 100 nM | –
CCc1nn2ccccc2c1-c1cncc(Nc2cccc(Cl)c2)n1 [compound 643, N-(3-chlorophenyl)-6-(2-ethylpyrazolo[1,5-a]pyridin-3-yl)pyrazin-2-amine] | 100 to 3000 nM | –
FC(F)(F)c1ccc(Nc2cncc(-n3c(Cl)nc4ccccc43)n2)cc1 [compound 134, 6-(2-chloro-1H-benzimidazol-1-yl)-N-[4-(trifluoromethyl)phenyl]pyrazin-2-amine] | 100 to 3000 nM | –
Cc1nc2ncccc2n1-c1cncc(Nc2ccc(OC(F)F)c(F)c2)n1 [compound 325] | 10 to 100 nM | –
